The numbers were not newly measured in article PMC5852599, “Microfluidic Devices for Drug Delivery Systems and Drug Screening” (Genes, 2018), which cites them from elsewhere.

The data set deals with breast cancer cells (Her-2). Details: method as in PMID 20237849. The note with it: 3D tumor spheroid in alginate hydrogel, compared to 2D cell culture.

Turning to `COc1cccc2c1C(=O)c1c(O)c3c(c(O)c1C2=O)C[C@@](O)(C(=O)CO)C[C@@H]3O[C@H]1C[C@H](N)[C@H](O)[C@H](C)O1` [doxorubicin], the “effectiveness on cell viability and proliferation” value is reported as “lower effectiveness”.
